Measured values reported in the kinase profiling compilation of Christmann-Franck et al. (2016).

Key:
Assay in all cases: radiometric filter-binding kinase assay, Kinase HotSpot
Settings in all cases: compound 0.5 µM; ATP 10 µM
[1] = biological target: ACVR1B (human) (UniProt P36896)
[2] = biological target: ADRBK1 (human) (UniProt P25098)
[3] = biological target: BRSK1 (human) (UniProt Q8TDC3)
[4] = biological target: CAMK1 (human) (UniProt Q14012)
[5] = biological target: CAMKK2 (human) (UniProt Q96RR4)
[6] = biological target: CDK1 CCNA2 (human) (UniProt P06493+P20248)
[7] = biological target: CDK5 CDK5R1 p25 (human) (UniProt Q00535+Q15078)
[8] = biological target: CLK1 (human) (UniProt P49759)
[9] = biological target: CSNK1E (human) (UniProt P49674)
[10] = biological target: DDR2 (human) (UniProt Q16832)
[11] = biological target: DMPK (human) (UniProt Q09013)
Chain of DMPK (human) (Q09013 whole entry, looked up): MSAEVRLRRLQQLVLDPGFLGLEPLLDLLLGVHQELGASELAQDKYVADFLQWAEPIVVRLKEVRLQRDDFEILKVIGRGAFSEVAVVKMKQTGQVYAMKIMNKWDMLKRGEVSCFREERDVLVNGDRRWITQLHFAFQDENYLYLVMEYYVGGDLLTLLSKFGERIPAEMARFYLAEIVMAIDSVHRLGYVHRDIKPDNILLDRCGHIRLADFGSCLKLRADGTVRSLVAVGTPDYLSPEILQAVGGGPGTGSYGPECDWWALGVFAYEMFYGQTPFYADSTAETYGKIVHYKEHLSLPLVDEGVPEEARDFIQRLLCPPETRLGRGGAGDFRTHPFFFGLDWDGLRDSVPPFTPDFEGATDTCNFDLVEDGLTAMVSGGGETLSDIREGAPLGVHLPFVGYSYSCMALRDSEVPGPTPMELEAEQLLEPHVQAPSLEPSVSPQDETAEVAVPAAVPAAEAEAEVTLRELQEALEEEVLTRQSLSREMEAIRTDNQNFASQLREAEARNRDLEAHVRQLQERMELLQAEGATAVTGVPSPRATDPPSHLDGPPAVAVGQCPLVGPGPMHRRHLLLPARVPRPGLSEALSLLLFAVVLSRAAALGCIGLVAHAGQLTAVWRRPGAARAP

[12] = biological target: DYRK1A (human) (UniProt Q13627)
[13] = biological target: DYRK3 (human) (UniProt O43781)
[14] = biological target: ERBB2 (human) (UniProt P04626)
[15] = biological target: FGFR1 (human) (UniProt P11362)
[16] = biological target: FRK (human) (UniProt P42685)
[17] = biological target: GSK3A (human) (UniProt P49840)
[18] = biological target: INSRR (human) (UniProt P14616)
Chain of INSRR (human) (P14616 whole entry, looked up): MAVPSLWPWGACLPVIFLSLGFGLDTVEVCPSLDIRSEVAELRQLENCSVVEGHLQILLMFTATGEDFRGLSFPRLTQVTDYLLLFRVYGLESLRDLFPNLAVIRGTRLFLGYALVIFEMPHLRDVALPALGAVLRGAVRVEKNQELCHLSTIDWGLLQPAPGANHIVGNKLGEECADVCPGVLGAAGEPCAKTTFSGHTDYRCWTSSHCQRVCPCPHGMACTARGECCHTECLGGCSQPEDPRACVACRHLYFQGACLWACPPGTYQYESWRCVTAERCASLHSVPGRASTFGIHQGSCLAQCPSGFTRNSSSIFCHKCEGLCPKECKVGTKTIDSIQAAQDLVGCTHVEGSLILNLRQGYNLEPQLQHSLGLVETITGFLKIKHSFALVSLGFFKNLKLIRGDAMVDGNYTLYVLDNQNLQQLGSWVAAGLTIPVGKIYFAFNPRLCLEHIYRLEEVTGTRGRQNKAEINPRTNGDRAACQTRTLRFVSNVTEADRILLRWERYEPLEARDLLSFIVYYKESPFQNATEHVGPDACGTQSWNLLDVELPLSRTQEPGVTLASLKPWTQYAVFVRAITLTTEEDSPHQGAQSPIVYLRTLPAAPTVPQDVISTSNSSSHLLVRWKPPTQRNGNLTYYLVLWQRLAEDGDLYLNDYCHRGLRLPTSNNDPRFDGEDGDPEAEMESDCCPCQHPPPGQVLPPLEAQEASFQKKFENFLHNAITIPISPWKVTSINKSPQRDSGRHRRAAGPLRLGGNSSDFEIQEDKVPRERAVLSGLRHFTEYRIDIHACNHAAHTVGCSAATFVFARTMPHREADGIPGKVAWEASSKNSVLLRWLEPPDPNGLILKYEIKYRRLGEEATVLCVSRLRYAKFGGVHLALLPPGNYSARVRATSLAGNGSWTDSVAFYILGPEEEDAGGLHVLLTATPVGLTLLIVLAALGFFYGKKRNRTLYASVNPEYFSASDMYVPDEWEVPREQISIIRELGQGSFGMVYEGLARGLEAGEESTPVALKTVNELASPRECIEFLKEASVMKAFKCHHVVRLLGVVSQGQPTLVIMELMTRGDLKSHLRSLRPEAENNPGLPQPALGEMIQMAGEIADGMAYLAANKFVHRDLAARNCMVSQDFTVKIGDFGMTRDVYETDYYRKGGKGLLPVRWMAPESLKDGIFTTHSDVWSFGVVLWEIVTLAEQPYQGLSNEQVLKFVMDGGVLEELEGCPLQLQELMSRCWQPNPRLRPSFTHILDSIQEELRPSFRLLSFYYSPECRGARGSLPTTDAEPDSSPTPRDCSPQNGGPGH

[19] = biological target: KDR (human) (UniProt P35968)
[20] = biological target: LIMK1 (human) (UniProt P53667)
[21] = biological target: MAP3K2 (human) (UniProt Q9Y2U5)
[22] = biological target: MAPK13 (human) (UniProt O15264)
[23] = biological target: MKNK2 (human) (UniProt Q9HBH9)
[24] = biological target: MYLK2 (human) (UniProt Q9H1R3)
[25] = biological target: NEK1 (human) (UniProt Q96PY6)
[26] = biological target: NEK7 (human) (UniProt Q8TDX7)
Chain of NEK7 (human) (Q8TDX7 whole entry, looked up): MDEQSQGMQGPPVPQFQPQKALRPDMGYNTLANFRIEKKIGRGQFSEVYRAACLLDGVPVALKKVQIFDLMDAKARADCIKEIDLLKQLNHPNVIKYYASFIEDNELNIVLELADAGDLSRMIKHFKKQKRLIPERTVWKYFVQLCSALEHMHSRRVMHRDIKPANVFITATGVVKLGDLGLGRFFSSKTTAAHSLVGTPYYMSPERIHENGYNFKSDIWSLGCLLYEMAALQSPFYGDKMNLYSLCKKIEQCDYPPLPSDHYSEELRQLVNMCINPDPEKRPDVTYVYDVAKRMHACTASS

[27] = biological target: PAK1 (human) (UniProt Q13153)
[28] = biological target: PAK7 (human) (UniProt Q9P286)
Chain of PAK7 (human) (Q9P286 whole entry, looked up): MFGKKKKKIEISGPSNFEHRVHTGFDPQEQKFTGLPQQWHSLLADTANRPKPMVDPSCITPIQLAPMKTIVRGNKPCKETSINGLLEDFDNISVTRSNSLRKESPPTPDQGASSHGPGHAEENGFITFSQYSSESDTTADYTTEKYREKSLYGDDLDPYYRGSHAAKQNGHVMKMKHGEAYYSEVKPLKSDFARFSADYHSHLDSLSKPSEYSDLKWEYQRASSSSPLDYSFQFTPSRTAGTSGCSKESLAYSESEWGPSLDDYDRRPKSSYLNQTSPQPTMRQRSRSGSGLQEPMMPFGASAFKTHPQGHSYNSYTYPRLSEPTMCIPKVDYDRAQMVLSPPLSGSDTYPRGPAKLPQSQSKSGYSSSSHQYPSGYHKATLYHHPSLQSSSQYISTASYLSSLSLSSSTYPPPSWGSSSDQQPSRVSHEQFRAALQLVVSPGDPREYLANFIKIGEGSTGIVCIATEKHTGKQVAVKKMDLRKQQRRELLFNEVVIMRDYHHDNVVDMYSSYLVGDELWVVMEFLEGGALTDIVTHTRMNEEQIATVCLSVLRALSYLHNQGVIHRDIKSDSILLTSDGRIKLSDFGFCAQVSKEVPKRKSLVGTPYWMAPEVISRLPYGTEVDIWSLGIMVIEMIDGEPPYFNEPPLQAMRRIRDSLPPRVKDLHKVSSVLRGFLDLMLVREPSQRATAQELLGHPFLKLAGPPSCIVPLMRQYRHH

[29] = biological target: PHKG1 (human) (UniProt Q16816)
[30] = biological target: PHKG2 (human) (UniProt P15735)
Chain of PHKG2 (human) (P15735 whole entry, looked up): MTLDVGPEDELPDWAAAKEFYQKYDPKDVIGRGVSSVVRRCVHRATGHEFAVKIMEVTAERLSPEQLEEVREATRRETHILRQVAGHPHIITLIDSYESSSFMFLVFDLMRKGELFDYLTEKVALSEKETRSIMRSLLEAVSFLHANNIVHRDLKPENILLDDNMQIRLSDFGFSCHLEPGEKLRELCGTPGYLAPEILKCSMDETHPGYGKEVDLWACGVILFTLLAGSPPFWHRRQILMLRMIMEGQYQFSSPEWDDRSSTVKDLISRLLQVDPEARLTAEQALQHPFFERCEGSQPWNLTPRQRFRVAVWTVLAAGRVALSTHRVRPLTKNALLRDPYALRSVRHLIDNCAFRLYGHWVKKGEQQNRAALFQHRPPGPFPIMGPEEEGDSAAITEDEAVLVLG

[31] = biological target: PKN2 (human) (UniProt Q16513)
[32] = biological target: PRKACA (human) (UniProt P17612)
[33] = biological target: PRKCB2 (human) (UniProt P05771)
[34] = biological target: PRKCE (human) (UniProt Q02156)
[35] = biological target: PRKCH (human) (UniProt P24723)
[36] = biological target: PTK2 (human) (UniProt Q05397)
[37] = biological target: PTK6 (human) (UniProt Q13882)
[38] = biological target: RPS6KA2 KD1 KD2 (human) (UniProt Q15349)
Chain of RPS6KA2 KD1 KD2 (human) (Q15349 whole entry, looked up): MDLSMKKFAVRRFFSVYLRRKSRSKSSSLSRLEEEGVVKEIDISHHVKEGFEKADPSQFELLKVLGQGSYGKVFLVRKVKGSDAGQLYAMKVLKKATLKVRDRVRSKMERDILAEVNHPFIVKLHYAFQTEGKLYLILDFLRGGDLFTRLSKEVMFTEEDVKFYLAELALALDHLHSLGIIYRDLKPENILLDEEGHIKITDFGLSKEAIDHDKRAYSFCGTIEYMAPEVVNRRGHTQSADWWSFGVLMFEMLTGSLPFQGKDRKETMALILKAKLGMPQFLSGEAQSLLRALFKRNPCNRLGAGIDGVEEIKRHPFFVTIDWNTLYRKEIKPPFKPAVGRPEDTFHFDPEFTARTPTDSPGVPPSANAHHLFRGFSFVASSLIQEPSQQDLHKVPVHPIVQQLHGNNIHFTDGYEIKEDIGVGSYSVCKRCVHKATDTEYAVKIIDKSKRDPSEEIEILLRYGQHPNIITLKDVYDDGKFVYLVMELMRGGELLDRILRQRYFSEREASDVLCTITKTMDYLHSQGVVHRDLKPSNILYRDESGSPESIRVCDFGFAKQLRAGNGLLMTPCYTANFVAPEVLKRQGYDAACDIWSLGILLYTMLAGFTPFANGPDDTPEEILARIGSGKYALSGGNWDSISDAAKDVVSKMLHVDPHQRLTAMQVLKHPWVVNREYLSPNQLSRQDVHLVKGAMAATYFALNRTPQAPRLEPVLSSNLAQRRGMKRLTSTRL

[39] = biological target: RPS6KA6 KD1 KD2 (human) (UniProt Q9UK32)
[40] = biological target: SRPK1 (human) (UniProt Q96SB4)
[41] = biological target: STK11 (human) (UniProt Q15831)
[42] = biological target: STK17A (human) (UniProt Q9UEE5)
Chain of STK17A (human) (Q9UEE5 whole entry, looked up): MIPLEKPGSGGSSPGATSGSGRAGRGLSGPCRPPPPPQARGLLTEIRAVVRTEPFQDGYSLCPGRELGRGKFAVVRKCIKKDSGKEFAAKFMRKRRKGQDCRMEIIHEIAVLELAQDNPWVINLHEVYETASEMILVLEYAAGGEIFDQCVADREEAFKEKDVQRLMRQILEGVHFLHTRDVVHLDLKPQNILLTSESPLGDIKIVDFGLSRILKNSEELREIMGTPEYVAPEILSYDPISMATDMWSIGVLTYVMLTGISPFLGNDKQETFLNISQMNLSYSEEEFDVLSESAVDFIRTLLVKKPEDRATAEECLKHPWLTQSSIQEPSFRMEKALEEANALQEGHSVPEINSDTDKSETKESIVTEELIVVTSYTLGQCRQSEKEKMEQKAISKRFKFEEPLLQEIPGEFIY

Chain of ACVR1B (human) (P36896 whole entry, looked up): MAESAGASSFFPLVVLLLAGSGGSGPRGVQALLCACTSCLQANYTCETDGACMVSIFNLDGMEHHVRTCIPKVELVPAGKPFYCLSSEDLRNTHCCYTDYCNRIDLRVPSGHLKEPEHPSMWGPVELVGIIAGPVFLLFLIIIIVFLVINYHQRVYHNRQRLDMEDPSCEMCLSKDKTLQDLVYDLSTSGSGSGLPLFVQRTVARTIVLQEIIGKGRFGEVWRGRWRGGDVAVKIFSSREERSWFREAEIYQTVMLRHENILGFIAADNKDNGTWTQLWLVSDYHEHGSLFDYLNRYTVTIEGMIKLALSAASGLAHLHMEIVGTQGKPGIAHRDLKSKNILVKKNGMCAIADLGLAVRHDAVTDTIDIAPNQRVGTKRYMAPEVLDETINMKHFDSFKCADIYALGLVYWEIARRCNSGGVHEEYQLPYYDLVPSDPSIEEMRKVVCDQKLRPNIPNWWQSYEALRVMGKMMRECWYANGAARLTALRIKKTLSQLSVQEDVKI

Compound `O=C1NC(=O)c2c1c1c3ccccc3n3c1c1c2c2ccccc2n1C1CCC3O1` has a residual activity [1] of 113%, a residual activity [2] of 97.9% and a residual activity [3] of 14.8%. For the same compound, the residual activity [4] was 69.7%, the residual activity [5] was 7.93% and the residual activity [6] was 61.7%. For the same compound, the residual activity [7] was 28%, the residual activity [8] was 43.1% and the residual activity [9] was 47.3%. For the same compound, the residual activity [10] was 80.1%, the residual activity [11] was 98.8% and the residual activity [12] was 8.74%. The residual activity [13] was 16.6%, the residual activity [14] was 98.4% and the residual activity [15] was 29.1%. The residual activity [16] was 102%, the residual activity [17] was 2.19% and the residual activity [18] was 7.16%. The residual activity [19] was 4.55%, the residual activity [20] was 49.3% and the residual activity [21] was 14%. The residual activity [22] was 114%, the residual activity [23] was 9.71% and the residual activity [24] was 7.76%. The residual activity [25] was 50.9%, the residual activity [26] was 99.1% and the residual activity [27] was 23.6%. It also gave a residual activity [28] of 64.7%, a residual activity [29] of 2.75% and a residual activity [30] of 75.6%. The residual activity [31] was 15.9%, the residual activity [32] was 44.7% and the residual activity [33] was 6.42%. It also gave a residual activity [34] of 28.4%, a residual activity [35] of 47.6% and a residual activity [36] of 23.5%. The residual activity [37] was 83.9%, the residual activity [38] was 1.33% and the residual activity [39] was 1.08%. For the same compound, the residual activity [40] was 88.1%, the residual activity [41] was 50.5% and the residual activity [42] was 8.65%.

`CCC(=O)Nc1ccc2ncnc(Nc3cccc(Br)c3)c2c1` was tested, and the residual activity [1] was 96.5%, the residual activity [2] was 112% and the residual activity [3] was 83.3%. The residual activity [4] was 88.9%, the residual activity [5] was 84.3% and the residual activity [6] was 87.9%. It also gave a residual activity [7] of 78.4%, a residual activity [8] of 84.5% and a residual activity [9] of 98.2%. For the same compound, the residual activity [10] was 109%, the residual activity [11] was 92% and the residual activity [12] was 89.2%. The residual activity [13] was 92.3%, the residual activity [14] was 34% and the residual activity [15] was 108%. It also gave a residual activity [16] of 66.8%, a residual activity [17] of 98.2% and a residual activity [18] of 98.4%. For the same compound, the residual activity [19] was 96.5%, the residual activity [20] was 88.7% and the residual activity [21] was 76.1%. It also gave a residual activity [22] of 106%, a residual activity [23] of 55.6% and a residual activity [24] of 96.4%. It also gave a residual activity [25] of 76.9%, a residual activity [26] of 92.7% and a residual activity [27] of 96.3%. The residual activity [28] was 91.6%, the residual activity [29] was 92.4% and the residual activity [30] was 109%. It also gave a residual activity [31] of 106%, a residual activity [32] of 94.6% and a residual activity [33] of 101%. The residual activity [34] was 99.7%, the residual activity [35] was 89.3% and the residual activity [36] was 99.4%. The residual activity [37] was 57.2%, the residual activity [38] was 87.2% and the residual activity [39] was 90.6%. For the same compound, the residual activity [40] was 97%, the residual activity [41] was 103% and the residual activity [42] was 88.7%.
